Columns and labels:
E. coli = test: Supplements to rich/selective media in RepFIC transformations; assay type: cell-based; conditions: for effective as substitute for the L-cysteine effect in RepFIC transformations: supplement to rich media, glutathione 300 micrograms per ml; for increase in the number of transformants: supplement added to the selective medium
C600 hosts = conditions: additives: cysteine, cystine, or glutathione
Source text: Single colonies that were normal in appearance, selected after transformation of C600 hosts in the presence of cysteine (Table 1, row 1) were resuspended in liquid medium. Aliquots were streaked onto spectinomycin-containing plates and spectinomycin plates with the following additives: cysteine, cystine, or glutathione.
Single colonies selected after transformation of C600 hosts in the presence of cysteine (Table 1, row 1) were initially difficult to grow.

C600 [1] = test: Transformation of scL and scH RepFIC plasmid DNAs into C600; assay type: cell-based, E. coli; conditions: supplement added after electroporation and/or during selection
Experimental: The package consists of homocysteine, ferrous sulfate, and magnesium sulfate.
To ascertain that the scL phenotype was heritable under all circumstances and viable, scL DNA was transferred into C600 by electroporation. Selection of transformants was carried out without additional supplements or in the presence of cysteine or glutathione. […] Thus, although an additional source of cysteine is still required under the conditions of this transformation, cysteine becomes toxic at the concentration that was previously used.
In order to identify the contribution of co-transmitted molecules that are easily removed, scL DNA was in vitro salt-stripped before being transformed. […] Plasmid preparations are associated with several proteins, of about 32 kda in size, which could be the dam-methyltransferase (GenBank accession no. J01600). Therefore, it is possible that the dam-methyltransferase is one significant component removed by the salt treatment.
The methylation reaction per se could have become limiting as a result of the removal of methyltransferase, and activation of the biosynthesis of S-adenosylmethionine (SAM), the methyl donor in the methylation reaction, could help overcome low enzyme levels in the cell. Homocysteine is a known co-inducer of the MetR regulon (Schell, 1993), and thus activates the synthesis of SAM (Palmer and Marinus, 1994). […]

C600 [2] = test: Plasmid yield after overnight growth with glycerol as carbon source; assay type: cell-based, E. coli; conditions: homocysteine and ferrous sulfate supplements
Experimental: (§1) Glycerol, when used as a carbon source, avoids catabolite repression. The plasmid was prepared from the following hosts grown overnight with the supplements homocysteine and ferrous sulfate, using glycerol as a carbon source: C600 containing the non-imprinted plasmid, the lon host Δlon-510 (containing the imprinted scL plasmid), and C600 containing the imprinted scL plasmid. […] One interpretation of the difference seen between lanes 3-4 and 5-6 is that when Lon is present (C600) and there is no catabolite repression, the post-replicative steps occur at a sufficient rate to adjust for the recovery of the final product, scH plasmid. When Lon is absent, stimulation of steps occurring after normal Lon-processing are ineffective because the substrate for these steps is insufficient.

lon host Δlon-510 = test: as above; assay type: cell-based, E. coli; conditions: homocysteine and ferrous sulfate supplements
Experimental: as §1

Compound: CSCC[C@H](N)C(=O)O [L-methionine]
- effective as substitute for the L-cysteine effect in RepFIC transformations (E. coli): None of these was effective

Compound: glutamyl-cysteinylglycine [glutathione]
- number of colonies obtained (E. coli; glutathione 300 micrograms per ml compared to 400 micrograms cysteine per ml): the same as with cysteine
- effective as substitute for the L-cysteine effect in RepFIC transformations (E. coli): effective
- growth of cysteine-selected transformants on spectinomycin plates with additive (C600 hosts): only grew on the glutathione-supplemented plates

Compound: N[C@@H](CCS)C(=O)O [Homocysteine, homocysteine]
- recovery of transformants with highly purified (salt-stripped) transforming DNA (C600 [1]): rescued the transforming ability

Compound: OCC(O)CO [glycerol]
- increase in yield of plasmid (C600 [2]): 5 to 10 fold
- increase in yield of plasmid (lon host Δlon-510): 5 to 10 fold

Compound: N[C@@H](CS(=O)(=O)O)C(=O)O [L0cysteic acid, L-cysteic acid]
- effective as substitute for the L-cysteine effect in RepFIC transformations (E. coli): None of these was effective

Compound: N[C@@H](CSSC[C@H](N)C(=O)O)C(=O)O [L-cystine]
- effective as substitute for the L-cysteine effect in RepFIC transformations (E. coli): None of these was effective

Compound: O=S(=O)([O-])[O-].[Mg+2] [Magnesium sulfate, magnesium sulfate]
- increase in the transformation efficiency (E. coli; supplement added after electroporation, RepFIC): no effect
- increase in the number of transformants (E. coli; RepFIC): no effect

Compound: N=C(N)NCCC[C@H](N)C(=O)O [L-arginine]
- effective as substitute for the L-cysteine effect in RepFIC transformations (E. coli): None of these was effective

Compound: CC(=O)NC(CS)C(=O)O (racemic) [-acetyl-D,L-cysteine, N-acetyl-D,L-cysteine]
- effective as substitute for the L-cysteine effect in RepFIC transformations (E. coli): None of these was effective

Compound: N[C@@H](CS)C(=O)O [L-cysteine]
- recovery of transformants with highly purified (salt-stripped) transforming DNA (C600 [1]): no longer helped in the recovery of transformants
- optimal concentration of cysteine (E. coli; selective medium, RepFIC transformation): 400 micrograms per ml
- increase in the number of transformants (E. coli; RepFIC): ~10^3 fold

Reference: patent publication US6849455B1, “Enhanced recovery of transformed cells” (New York University, priority 2000, dated 2005)
